Data reported in article PMC4929710, “Specificity and mechanism of action of alpha-helical membrane-active peptides interacting with model and biological membranes by single-molecule force spectroscopy” (Scientific Reports, 2016).

How the values were obtained:
[1] = test system: human red blood cells (hRBCs); assay: Hemolytic activity assay (MHC); type: cell-based; settings: 1% final hRBCs in PBS (70 μL of 2% + 70 μL peptide), 37 °C, 2 h, absorbance 578 nm
Experimental: Peptide samples were serially diluted with phosphate-buffered saline (PBS) and added to 96-well plates (round bottom) with 70 μL per well. Healthy human red blood cells (hRBCs) were collected using an anticoagulation tube with EDTAK2 and centrifuged at 1,000 rpm for 5 min. The erythrocytes were washed three times, resuspended in PBS, and then diluted to a concentration of 2% in PBS. A total of 70 μL of 2% erythrocytes was added to each well and incubated at 37 °C for 2 h. The plates were centrifuged for 10 min at 3,000 rpm and the supernatant was transferred to a 96-well plate (flat bottom). The release of hemoglobin was determined by measuring the absorbance of the supernatant at 578 nm. The hemolytic activity was determined as the minimal peptide concentration that caused hemolysis [minimal hemolytic concentration (MHC)]. Erythrocytes in PBS and distilled water were used as the control of 0% and 100% hemolysis, respectively.

bacteria = settings: text summary of Table 1, strain not specified
Experimental: Minimal inhibitory concentrations (MICs) were used to represent the antimicrobial activity of MAPs and were determined by the standard microtiter dilution method. Four bacterial strains including two gram-negative bacterial strains of E. coli and P. aeruginosa, and two gram-positive bacterial strains of S. aureus and S. epidermidis were selected as representative prokaryotes. A single bacterial colony was picked and cultured in Mueller–Hinton (MH) medium for 18–20 h. The bacterial solution was diluted in the same medium for a final inoculum of 5 × 10^5 colony-forming units (CFU)/mL and placed in 96-well plates with 90 μL per well. Then, 10 μL of peptides was added. MICs were determined as the lowest peptide concentration that inhibited bacterial growth after incubation for 24 h at 37 °C. All assays were repeated in triplicate. GM is the geometric mean of MIC values from two gram-positive bacteria strains or two gram-negative bacteria strains in this table.

| Compound | MHC (minimal hemolytic concentration) [1] | MIC value (bacteria) |
| --- | --- | --- |
| CC[C@H](C)[C@H](NC(=O)[C@H](C)NC(=O)[C@H](CCCCN)NC(=O)[C@H](CC(C)C)NC(=O)[C@H](C)NC(=O)[C@@H](NC(=O)[C@H](Cc1cnc[nH]1)NC(=O)[C@H](CC(C)C)NC(=O)[C@@H](NC(=O)[C@@H](NC(=O)[C@H](CCCCN)NC(=O)[C@H](CCCCN)NC(=O)[C@H](C)NC(=O)[C@H](CO)NC(=O)[C@H](CCCCN)NC(=O)[C@H](Cc1ccccc1)NC(=O)[C@@H](NC(=O)[C@H](CCCCN)NC(=O)[C@H](CC(C)C)NC(=O)[C@H](Cc1ccccc1)NC(=O)[C@H](CO)NC(=O)[C@H](CCCCN)NC(=O)[C@H](Cc1c[nH]c2ccccc12)NC(=O)[C@H](CCCCN)NC(C)=O)[C@@H](C)O)[C@@H](C)O)C(C)C)[C@@H](C)O)C(=O)N[C@@H](CO)C(=O)N[C@@H](CO)C(N)=O [Peptide V13K] | 250 µM | – |
| Ac-KWKSFAKTFKSAKKTVAHTALKAISS-NH2 [L6A/L17A] | – | approximately 125 μM |
